Values quoted from earlier work, collected in US6909006B1, “Cyclopropylindole derivatives” (priority 1999, dated 2005).

Tested on: tumour cells growing in vitro

SMILES: COc1c(O)c2c(c3cc(C(=O)N4CCc5c4c(O)c(OC)c4[nH]c(C(=O)N6CC7CC78C6=CC(=O)c6[nH]cc(C)c68)cc54)[nH]c13)CCN2C(N)=O (stereo not shown) [CC-1065]
- IC50s in tumour cells growing in vitro: low pM range
